Measurements taken from article PMC3062577, “Purification and biochemical properties of a cytochrome bc complex from the aerobic hyperthermophilic archaeon Aeropyrum pernix” (BMC Microbiology, 2011).

Assays:
[1] = molecular target: T1, cytochrome c553 complex (cytochrome bc complex) (Aeropyrum pernix, UniProt Q9YB72+Q9YB73+Q9YB78); experiment: spectrophotometric menaquinol oxidation / yeast cytochrome c reduction; assay type: biochemical; settings: acceptor yeast cytochrome c; pH 7.0, 40 °C, 0.2 mM menaquinol-1 (menaquinol oxidase assay); 0.1% DDM
T1 construct: gene soxC; native complex purified from A. pernix K1 membranes in DDM; 80 kDa on BN-PAGE; subunits 40, 30 and 25 kDa; only the 25-kDa subunit identified by mass (21,344)
T1 sequence (Q9YB72 1-571): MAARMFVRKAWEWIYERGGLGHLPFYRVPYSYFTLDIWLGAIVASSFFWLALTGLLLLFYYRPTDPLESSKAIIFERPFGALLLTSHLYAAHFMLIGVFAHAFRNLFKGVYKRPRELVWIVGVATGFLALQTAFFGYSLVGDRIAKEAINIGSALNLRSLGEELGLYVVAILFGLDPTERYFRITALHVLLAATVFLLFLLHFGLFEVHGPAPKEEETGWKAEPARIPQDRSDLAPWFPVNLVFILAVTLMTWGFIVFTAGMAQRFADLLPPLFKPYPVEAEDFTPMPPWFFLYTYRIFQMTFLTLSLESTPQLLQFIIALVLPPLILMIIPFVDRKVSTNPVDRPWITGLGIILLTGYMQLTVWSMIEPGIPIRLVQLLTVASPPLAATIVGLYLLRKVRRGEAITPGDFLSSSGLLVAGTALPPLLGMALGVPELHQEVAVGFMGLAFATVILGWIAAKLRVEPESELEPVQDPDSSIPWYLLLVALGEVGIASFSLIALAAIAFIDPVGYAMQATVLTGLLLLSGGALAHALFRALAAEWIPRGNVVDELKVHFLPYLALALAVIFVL
T1 sequence (Q9YB73 34-265): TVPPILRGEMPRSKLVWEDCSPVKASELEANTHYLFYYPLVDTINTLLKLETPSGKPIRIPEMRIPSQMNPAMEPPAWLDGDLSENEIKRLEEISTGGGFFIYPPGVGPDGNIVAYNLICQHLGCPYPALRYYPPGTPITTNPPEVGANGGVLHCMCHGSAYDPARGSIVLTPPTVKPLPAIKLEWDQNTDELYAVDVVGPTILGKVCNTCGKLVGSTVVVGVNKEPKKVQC
T1 sequence (Q9YB78 1-190): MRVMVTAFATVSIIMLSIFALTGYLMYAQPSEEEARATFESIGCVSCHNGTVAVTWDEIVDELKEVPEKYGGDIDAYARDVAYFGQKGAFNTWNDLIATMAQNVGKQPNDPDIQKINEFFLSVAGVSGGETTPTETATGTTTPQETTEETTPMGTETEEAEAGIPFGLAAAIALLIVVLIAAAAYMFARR

cytochrome oa3 oxidase = molecular target: T2, cytochrome oa3 oxidase (Aeropyrum pernix, UniProt Q9YDX6+Q9YDX7); experiment: spectrophotometric TMPD oxidation at […] nm; assay type: biochemical; settings: 25 mM TMPD, 0.1 M NaCl, 50 mM NaPi pH 6.5, 40 °C; without added cytochrome c553
T2 construct: gene aoxB; native, partially purified from A. pernix K1 membranes in DDM; 140 kDa on BN-PAGE; bands 74, 40 and 25 kDa (25 kDa = cytochrome c553); assigned to AoxA/AoxB by size only; aoxABC = APE_0792.1, APE_0793.1, APE_0795.1
T2 sequence (Q9YDX6 whole entry): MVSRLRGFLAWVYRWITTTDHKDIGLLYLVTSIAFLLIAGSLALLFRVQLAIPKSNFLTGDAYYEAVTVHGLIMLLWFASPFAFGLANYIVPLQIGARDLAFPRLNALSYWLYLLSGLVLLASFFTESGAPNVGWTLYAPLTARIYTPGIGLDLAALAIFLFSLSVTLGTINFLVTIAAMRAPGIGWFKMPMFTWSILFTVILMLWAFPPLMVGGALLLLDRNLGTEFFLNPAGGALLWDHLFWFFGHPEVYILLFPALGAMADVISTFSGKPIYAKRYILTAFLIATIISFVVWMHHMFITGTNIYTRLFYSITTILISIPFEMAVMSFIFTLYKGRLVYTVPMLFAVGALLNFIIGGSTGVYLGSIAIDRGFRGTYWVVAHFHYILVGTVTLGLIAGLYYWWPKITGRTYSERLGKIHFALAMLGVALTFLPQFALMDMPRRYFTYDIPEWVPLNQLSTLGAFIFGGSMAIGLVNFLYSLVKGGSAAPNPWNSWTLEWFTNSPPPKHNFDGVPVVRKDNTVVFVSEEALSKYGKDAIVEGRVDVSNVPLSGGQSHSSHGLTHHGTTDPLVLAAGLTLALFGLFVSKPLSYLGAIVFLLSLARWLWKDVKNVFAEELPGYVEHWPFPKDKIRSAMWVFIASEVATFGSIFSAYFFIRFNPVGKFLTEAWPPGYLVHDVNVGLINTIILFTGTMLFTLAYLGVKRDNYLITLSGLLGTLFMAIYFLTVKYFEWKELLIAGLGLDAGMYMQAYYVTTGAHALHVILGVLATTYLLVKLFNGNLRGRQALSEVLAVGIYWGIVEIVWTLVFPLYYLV
T2 sequence (Q9YDX7 whole entry): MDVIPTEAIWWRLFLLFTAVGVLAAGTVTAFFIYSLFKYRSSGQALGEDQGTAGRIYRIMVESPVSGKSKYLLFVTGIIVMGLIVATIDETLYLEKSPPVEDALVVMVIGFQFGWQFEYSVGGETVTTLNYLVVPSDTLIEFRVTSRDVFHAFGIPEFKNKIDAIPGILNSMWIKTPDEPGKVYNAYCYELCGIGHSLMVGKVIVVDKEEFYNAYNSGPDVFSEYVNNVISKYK
T2 sequence (Q9YDX4 whole entry partner): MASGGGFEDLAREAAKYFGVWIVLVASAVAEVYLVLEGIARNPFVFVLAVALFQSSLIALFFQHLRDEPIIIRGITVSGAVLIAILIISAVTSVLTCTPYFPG

Row | Compound | spectrophotometric menaquinol oxidation / yeast cytochrome c reduction [1] | spectrophotometric TMPD oxidation at 562 nm (cytochrome oa3 oxidase)
1 | CC(C)=CCc1c(C)c(O)c2ccccc2c1O [menaquinol-1] | cytochrome c553 oxidized menaquinol and reduced yeast cytochrome c | 
2 | CN(C)c1ccc(N(C)C)cc1 [TMPD, N,N,N',N'-tetramethyl-p-phenylenediamine] |  | The isolated cytochrome oa3 oxidase had TMPD and yeast cytochrome c oxidation activity
